The text below walks through data of ChEMBL document CHEMBL5113465, “Design, synthesis and evaluation of alpha lipoic acid derivatives to treat multiple sclerosis-associated central neuropathic pain” (Bioorg Med Chem, 2022).

A value given as a limit tells only on which side of the number the result lay.

Data set [1] can be described thus: Half life in pH 1.5 gastric enzyme-free fluid assessed as parent compound remaining neutralized with 0.1 N triethylamine solution at 20 mins interval for 3 hrs by HPLC analysis. In kind it is ADME.
Data set [2] can be described thus: Half life in pH 6.8 intestinal enzyme-free fluid assessed as parent compound remaining neutralized with 0.1 N triethylamine solution at 20 mins interval for 3 hrs by HPLC analysis. In kind it is ADME.
Data set [3] is described as follows: Half life in mouse plasma at 0.1 to 50 ppm by LC-MS analysis. In kind it is ADME, cell-free. The settings on record: dose 0.1-50 ppm.
A short description of data set [4]: Octanol/water partition coefficient, log P of the compound by HPLC analysis. In kind it is physicochemical.
A short description of data set [5]: Aqueous solubility of compound. In kind it is physicochemical.
The nature of data set [6]: Stability of compound in pH 6.8 intestinal enzyme-free fluid assessed as decomposition measured within 20 mins by HPLC analysis. In kind it is ADME. Particulars: buffer, pH 6.8, 20 min.
A short description of data set [7]: Stability of compound in pH 1.5 gastric enzyme-free fluid assessed as decomposition measured within 20 mins by HPLC analysis. In kind it is ADME. Particulars: buffer, pH 1.5, 20 min.
The nature of data set [8]: Apparent permeability in human Caco-2 cells measured after 15 mins by LC-MS analysis. In kind it is ADME, cell-based.
Data set [9] can be described thus: Stability in mouse plasma at 1 to 500 ppm measured within 1 min by LC-MS analysis. It counts as ADME, cell-free. Particulars: dose 1-500 ppm.
[10] abbreviates: aqueous medium, read-out: solubility.

In general, half-life refers to the time needed for the level to fall by half in the phase considered. Turning to `O=C(CCCC[C@@H]1CCSS1)OCCOCCOCCO`, the half-life in data set [1] and in data set [2] was over 2 h each time.
A word on the logP: it is a log measure of how a compound divides between an organic and an aqueous phase. What is called solubility is the concentration that dissolves in the medium under given conditions. In data set [3], `O=C(CCCC[C@@H]1CCSS1)O[C@H]1[C@H](O)[C@@H](CO)OC(O)[C@@H]1O` (some centres undefined) had a half-life of 1.5 h. In addition, the lipophilicity (logP) in data set [4] is 0.31. Also, in data set [5] (setting [10]), the solubility was over 10000 µM.
As to `O=C(CCCC[C@@H]1CCSS1)OC[C@H]1OC(O)[C@H](O)[C@@H](O)[C@@H]1O` (some centres undefined), the log partition coefficient (logP) in data set [4] came to 0.94. Also, the solubility in [5] (setting [10]) is under 2000 µM.
Turning to `O=C(CCCC[C@@H]1CCSS1)OCCN1CCOCC1`, the Drug degradation result in data set [6] and in data set [7] was “Active” throughout. For the same compound, the lipophilicity (logP) in data set [4] turned out to be 2.64. Besides, the solubility in data set [5] (setting [10]) is under 10 µM.
For `O=C(CCCC[C@@H]1CCSS1)OCc1cc(=O)c(O)co1`, the half-life in data set [1] and in data set [2] was over 2 h in each case. Further, in data set [4], the logP turned out to be 2.03. For the same compound, the solubility in data set [5] (setting [10]) was under 10 µM.
In general, Papp refers to a coefficient for how fast a substance crosses the barrier. For `Cc1oc(=O)oc1COC(=O)CCCC[C@@H]1CCSS1`, the half-life in [1] and in data set [2] was over 2 h in each case. In addition, the Papp at 0.25 h in data set [8] came out at 15.9 ×10⁻⁶ cm/s.
With `Cl.O=C(CCCC[C@@H]1CCSS1)OCCN1CCOCC1`, the Stability entry in data set [9] was “Unstable”. Moreover, in data set [5] (buffer), the solubility entry is listed as “Soluble”.
Take `O=C(CCCC[C@@H]1CCSS1)OC(CO)CO`: the half-life in data set [1] and in [2] was over 2 h each time.
In the case of `CN1CCN(CCOC(=O)CCCC[C@@H]2CCSS2)CC1`, the half-life in data set [1] and in [2] was over 2 h each time.
